What was measured:
MAO-A = biological target: T1, MAO-A (Homo sapiens, UniProt P21397); assay: MAO-Glo luminescence enzyme activity assay; assay type: biochemical
T1 construct: gene MAOA
T1 sequence (P21397 1-527): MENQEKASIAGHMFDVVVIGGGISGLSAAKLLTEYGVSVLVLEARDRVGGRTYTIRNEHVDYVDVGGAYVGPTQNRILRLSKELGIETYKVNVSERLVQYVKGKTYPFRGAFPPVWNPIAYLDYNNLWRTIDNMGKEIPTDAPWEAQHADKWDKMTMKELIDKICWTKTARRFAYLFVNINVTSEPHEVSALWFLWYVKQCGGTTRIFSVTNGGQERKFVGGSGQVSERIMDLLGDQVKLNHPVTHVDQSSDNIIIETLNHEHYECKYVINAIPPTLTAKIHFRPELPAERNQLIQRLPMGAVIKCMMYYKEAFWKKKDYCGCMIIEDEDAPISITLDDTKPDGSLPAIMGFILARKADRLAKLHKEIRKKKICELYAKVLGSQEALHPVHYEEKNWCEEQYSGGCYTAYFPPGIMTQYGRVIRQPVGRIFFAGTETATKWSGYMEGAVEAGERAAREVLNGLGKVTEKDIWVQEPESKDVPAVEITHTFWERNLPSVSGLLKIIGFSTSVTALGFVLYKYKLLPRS

MAO-B = biological target: T2, MAO-B (Homo sapiens, UniProt P27338); assay: MAO-Glo luminescence enzyme activity assay with purchased human MAO-B; assay type: biochemical
T2 construct: gene MAOB
T2 sequence (P27338 2-520): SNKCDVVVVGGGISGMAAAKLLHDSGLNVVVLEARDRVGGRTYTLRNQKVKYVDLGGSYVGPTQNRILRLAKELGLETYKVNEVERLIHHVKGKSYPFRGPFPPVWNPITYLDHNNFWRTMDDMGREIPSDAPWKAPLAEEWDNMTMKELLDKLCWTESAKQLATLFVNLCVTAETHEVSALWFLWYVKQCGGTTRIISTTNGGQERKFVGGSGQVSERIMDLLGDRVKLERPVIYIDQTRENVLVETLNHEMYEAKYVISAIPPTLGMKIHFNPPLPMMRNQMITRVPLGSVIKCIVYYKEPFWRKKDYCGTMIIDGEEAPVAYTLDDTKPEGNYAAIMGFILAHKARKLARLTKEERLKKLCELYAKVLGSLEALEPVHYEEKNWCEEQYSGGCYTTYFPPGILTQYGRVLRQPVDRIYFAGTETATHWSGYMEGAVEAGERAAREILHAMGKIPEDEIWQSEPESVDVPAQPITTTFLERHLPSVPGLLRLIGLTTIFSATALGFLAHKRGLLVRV

## Cn1c2ccccc2c2ccncc21 [9-methyl-β-carboline]
MAO-A
  IC50: 1 µM
MAO-B
  IC50: 15.5 µM
